Assay results published in patent US9695218B2, “Pharmaceutical composition for preventing or treating ocular surface disease” (INJE UNIVERSITY INDUSTRY-ACADEMIC COOPERATION FOUNDATION, priority 2014, dated 2017).

Experiments:
Type in all cases: in vivo, New Zealand white rabbits
[1] = test system: CD31; assay: Immunohistochemistry of angiogenic marker CD31 in alkaline burn rabbit cornea; conditions: 10 mg/mL instilled 4 times per day, 10th day, compared with the peptide I group
Method: (§1) Ocular tissue sections of an alkaline burn animal model were cut to a thickness of 6 μm, and then, the tissue sections were used for immunohistochemical analysis.
(§2) First, the tissue sections were fixed in 3.5% paraformaldehyde, permeabilized with 0.1% Triton X-100, blocked with 2% bovine serum albumin (BSA; all from Sigma, St. Louis, Mo.), and incubated overnight with the following primary antibodies; anti-CD31 (1:1,000; Abcam Inc., Cambridge, Mass.), anti-MMP-9, anti-ICMA-1, anti-VCAM-1 (1:1,000; from Bioss Antibodies, Woburn, Mass.), anti-TNFα, anti-NF-κB (1:1,000; all from biorbyt LLC, San Franciso, Calif.) anti-macrophage/monocyte (Abnova Crop., Taipei, Taiwan), and anti-VEGF-A (Abbiotec, San Diego, Calif.).
(§3) Next, the tissue sections were incubated with a secondary antibody for 45 minutes. The immunological reactions therein were visualized with diaminobenzidine (DAB) chromogen, and the tissue sections were counterstained with Mayer's hematoxylin (Sigma) for 30 seconds at room temperature.
(§4) The sections were photographed with a virtual microscope (virtual microscope; NanoZoomer 2.0 RS, Hamamatsu, Japan).
(§5) The rabbits were randomly divided into three groups: the alkaline burn group (n=5), the peptide I group (n=5), and the peptide II group (n=5). […]

[2] = test system: cornea of alkaline burn rabbit; assay: Corneal thickness of H&E-stained tissue sections in corneal alkaline burn rabbit model; conditions: 10th day after treatment, 10 mg/mL instilled 4 times per day, normal 628.0±13.2, alkali burn control 1078.0±30.8
Method: (§6) 15 New Zealand white rabbits weighing between 2.0 kg and 2.5 kg were purchased from Samtako (Osan, Korea), and then, were subjected to systemic anesthesia by intramuscular injection of a mixture of ketamine hydrochloride (30 mg/kg body weight, Huons, Jecheon, Korea) and xylazine hydrochloride (2.5 mg/kg, Bayer Korea Ltd., Seoul, Korea) and to topical anesthesia by Alcaine propracaine eye drops (Alcon Inc., Seoul, Korea).
(§7) Afterwards, alkaline burn model was developed by applying an 8 mm filter paper soaked in 1 N NaOH to the right central corneas of rabbits for 1 minute. 7 days later, an increase in corneal angiogenesis and corneal opacity upon alkaline burns was confirmed.
The rabbits were randomly divided into three groups: the alkaline burn group (n=5), the peptide I group (n=5), and the peptide II group (n=5). The alkaline burn group was treated with saline instilled thereto 4 times per day, the peptide I group was treated with 10 mg/mL of peptide SEQ ID NO: 1 instilled thereto 4 times per day, and the peptide II was treated with 10 mg/mL of peptide SEQ ID NO: 2 instilled thereto 4 times per day. The left eyes were used as controls. […]
The corneal thickness of the tissue sections was measured using photographs obtained by the H&E staining and taken with a virtual microscope (NanoZoomer 2.0 RS, Hamamatsu, Japan) according to the NDP view program (Hamamatsu, USA).

[3] = test system: fibroblast in the stroma of alkaline burn rabbit cornea; assay: Masson's trichrome staining for fibrotic changes of the cornea following alkali burns; conditions: 10th day after treatment, 10 mg/mL instilled 4 times per day
Method: as §6, §7
(§8) The rabbits were randomly divided into three groups: the alkaline burn group (n=5), the peptide I group (n=5), and the peptide II group (n=5). The alkaline burn group was treated with saline instilled thereto 4 times per day, the peptide I group was treated with 10 mg/mL of peptide SEQ ID NO: 1 instilled thereto 4 times per day, and the peptide II was treated with 10 mg/mL of peptide SEQ ID NO: 2 instilled thereto 4 times per day. The left eyes were used as controls.
(§9) On the 10th day after the treatment as described above, the H&E staining, the Masson's trichrome staining, and immunohistochemistry were performed to observe the fibrosis, angiogenesis, inflammation, and structural changes of the cornea. […]

[4] = test system: VCAM-1; assay: Immunohistochemistry of inflammatory marker VCAM-1 in alkaline burn rabbit cornea; conditions: 10 mg/mL instilled 4 times per day, 10th day
Method: as §1, §2, §3, §4, §5

[5] = test system: ICAM-1; assay: Immunohistochemistry of inflammatory marker ICAM-1 in alkaline burn rabbit cornea; conditions: 10 mg/mL instilled 4 times per day, 10th day
Method: as §1, §2, §3, §4, §5

[6] = test system: NF-κB; assay: Immunohistochemistry of NF-κB in alkaline burn rabbit cornea; conditions: 10 mg/mL instilled 4 times per day, 10th day, compared to peptide I treatment
Method: as §1, §2, §3, §4, §5

[7] = test system: VEGF; assay: Immunohistochemistry of angiogenic marker VEGF in alkaline burn rabbit cornea; conditions: 10 mg/mL instilled 4 times per day, 10th day, compared with the peptide I group
Method: as §1, §2, §3, §4, §5

[8] = test system: macrophages; assay: Immunohistochemistry of macrophages in alkaline burn rabbit cornea; conditions: 10 mg/mL instilled 4 times per day, 10th day
Method: as §1, §2, §3, §4, §5

[9] = test system: cornea of alkaline burn rabbit; assay: H&E staining for histological changes in cornea following alkaline burn; conditions: 10th day after treatment, 10 mg/mL instilled 4 times per day
Method: as §6, §7, §8, §9

[10] = test system: TNFα; assay: Immunohistochemistry of inflammatory marker TNFα in alkaline burn rabbit cornea; conditions: 10 mg/mL instilled 4 times per day, 10th day
Method: as §1, §2, §3, §4, §5

[11] = test system: cornea of alkaline burn rabbit; assay: Clinical evaluation of corneal angiogenesis and opacification in corneal alkaline burn rabbit model; conditions: 10 mg/mL instilled 4 times per day for 10 days, day 17 after alkaline burn; for corneal opacity score (graded 0 through 3): mean±SD, n=5, saline control 3.0±0.0
Method: as §6, §7, §8
7 days after the corneal alkaline burns, clinical evaluation of corneal angiogenesis and opacification was performed.
First, the extent of corneal angiogenesis was scored from 0 through 3, where 0 denotes no angiogenesis, 1 denotes angiogenesis confined to the corneal periphery, 2 denotes angiogenesis extending up to the pupil margin, and 3 denotes angiogenesis extending beyond the pupil margin into the central cornea. In eyes where significant opacification or extensive symblepharon formation caused difficulties in evaluating corneal angiogenesis, a score of 3 was assigned.
In addition, the severity of corneal opacification was graded from 0 through 3, where 0 denotes clear cornea with iris details clearly visualized, 1 denotes partial obscuration of the iris details, 2 denotes iris details poorly seen with the pupil margin just visible, and 3 denotes complete obscuration of iris and pupil details. […]

[12] = test system: MMP-9; assay: Immunohistochemistry of inflammatory marker MMP-9 in alkaline burn rabbit cornea; conditions: 10 mg/mL instilled 4 times per day, 10th day, compared to the peptide I group
Method: as §1, §2, §3, §4, §5

Substance | expression of CD31 in epithelium, subepithelium and stroma [1] | corneal thickness [2] [μm] | fibrotic changes / population of fibroblast in stroma (Masson's trichrome) [3] | expression of VCAM-1 [4] | expression of ICAM-1 [5] | expression of NF-κB in stroma [6] | expression of VEGF in epithelium, subepithelium and stroma [7] | expression of macrophages [8] | histological alterations (epithelial proliferation, infiltration of inflammatory cells, stromal edema, angiogenesis; H&E) [9] | expression of TNFα [10] | corneal angiogenesis (scored 0 through 3) ([11]; compared to the control group (2.7±0.5)) | corneal opacity score (graded 0 through 3) [11] | expression of MMP-9 [12]
GQDGLAGPK (Collagen type II, alpha 1) [peptide II, collagen type II α1 based peptide isolated from chondrocyte-derived extracellular matrix (CDEM), synthesized] | significantly decreased | 876.0±37.0 | significantly suppressed the population of fibroblast | decreased | decreased | decreased | significantly decreased | effectively suppressed | improved | decreased | decreased angiogenesis | 1.9±0.6 | suppressed
GDRGD (Collagen type I, alpha 1) [peptide I, collagen type I α1 based peptide from CDEM, synthesized; used as comparative group] | – | 1066.0±31.7 | little effect on the fibrotic changes | – | – | – | – | – | little effect | – | – | 2.1±0.3 | –
